Assays:
[1] = Phase I study Debio 8200-IMM-101, Patient A: serum testosterone levels; format: in vivo, human; conditions: baseline Day 1 15.7 nmol/L, castrate range <1.735 nmol/L
Protocol: The study involves 3 to 12 treatment cycles (depending on individual responses) of 28 days each. Patients receive triptorelin embonate (pamoate) 3.75 mg one-month formulation i.m. on day 1 of each 28-day cycle and nivolumab (Opdivo®) at 3 mg/kg body weight i.v. (1-hour infusion) on days 1 and 15 of each cycle. On day 1 of each cycle, triptorelin is administered prior to nivolumab. In addition, patients take bicalutamide 50 mg p.o. once daily for 28 days throughout cycle 1 only, to counteract the initial testosterone “flare” induced by triptorelin.
On 12 Jun. 2018 the patient was enrolled in the protocol Debio 8200-IMM-101 and received the first injections of triptorelin -anti-androgen bicalutamide was added for 28 days- and anti-PD-1 molecule nivolumab.
As expected due to triptorelin treatment, the serum testosterone levels of the patient decreased from a baseline (Day 1) level of 15.7 nmol/L on 12 Jun. 2018 to a very low castrate level of 0.6 nmol/L four weeks later 10 Jul. 2018 (Day 29), and have remained in the castrate range (i.e. <1.735 nmol/L) until the last value available to date of 0.69 nmol/L on 29 Oct. 2018 (Day 141).

melanoma = melanoma patients in phase II or III trials; in some cases for more than ten years; cited from earlier work
[2] = tested on: melanoma metastasis in the pancreas; experiment: Patient A: prior pembrolizumab treatment, tumor response by PET-CT; format: in vivo, human
Protocol: A person (at screening on 23 May 2018) […] had been operated on 26 Sep. 2016 for left lung lobectomy for melanoma metastasis of unknown origin. On 21 Aug. 2017, biopsy of PET-CT (Positron emission tomography—computed tomography) detected a new melanoma metastasis in the pancreas. From 27 Sep. 2017 until 13 Mar. 2018 (last administration at Cycle 9) they were treated with anti-PD-1 molecule pembrolizumab. On 12 Dec. […] However, on 30 Mar. […] On 23 May 2018, the size of this unique pancreatic metastasis was 34 mm on CT-scan.

CC(C)C[C@H](NC(=O)[C@@H](Cc1c[nH]c2ccccc12)NC(=O)[C@H](Cc1ccc(O)cc1)NC(=O)[C@H](CO)NC(=O)[C@H](Cc1c[nH]c2ccccc12)NC(=O)[C@H](Cc1c[nH]cn1)NC(=O)[C@@H]1CCC(=O)N1)C(=O)N[C@@H](CCCNC(=N)N)C(=O)N1CCC[C@H]1C(=O)NCC(N)=O [triptorelin, pyroGlu-His-Trp-Ser-Tyr-D-Trp-Leu-Arg-Pro-Gly-NH2]
serum testosterone level ([1]; Day 29 (10 Jul. 2018)): 0.6 nmol/L | serum testosterone level ([1]; Day 141 (29 Oct. 2018)): 0.69 nmol/L

Ipilimumab: fully human IgG1 CTLA-4-blocking monoclonal antibody from Bristol-Myers Squibb
durable survival, patients (melanoma): about 20%

pembrolizumab: humanized IgG4 monoclonal anti-PD-1 antibody from Merck
tumor response ([2]; 12 Dec. 2017, pembrolizumab from 27 Sep. 2017 until 13 Mar. 2018): Partial Response (PR) | tumor response ([2]; 30 Mar. 2018, PET-CT, after Cycle 9 of pembrolizumab): progression (PD)
